Legend:
[1] = target: T1, Cytochrome P450 3A4 (Homo sapiens, UniProt P08684); test: Drug metabolism in human liver microsomes assessed as CYP3A4-mediated drug depletion in presence of CYP3A4 inhibitor ketoconazole by LC-MS/MS method; assay type: ADME
[2] = Drug excretion in feces of human treated with [14C}LY2452473 at 15 mg, po administered as single dose by HPLC analysis; assay type: ADME, organism-based; conditions: read-out: Drug excretion
[3] = target: T1, Cytochrome P450 3A4; test: Intrinsic clearance assessed as human recombinant CYP3A4-mediated drug depletion per pmol protein by LC-MS/MS method; assay type: ADME; conditions: recombinant enzyme
[4] = test system: Plasma; test: Drug level in human plasma treated with [14C}LY2452473 at 15 mg, po after 8 hrs administered as single dose by HPLC analysis; assay type: ADME, organism-based; conditions: in vivo
[5] = test system: Plasma; test: Drug level in human plasma treated with [14C}LY2452473 at 15 mg, po after 4 hrs administered as single dose by HPLC analysis relative to total radioactivity; assay type: ADME, organism-based; conditions: in vivo
[6] = Total drug excretion in human treated with [14C}LY2452473 at 15 mg, po administered as single dose by HPLC analysis; assay type: ADME, organism-based; conditions: in vivo, read-out: Drug excretion
[7] = test system: Plasma; test: Drug level in human plasma treated with [14C}LY2452473 at 15 mg, po after 4 hrs administered as single dose by HPLC analysis; assay type: ADME, organism-based; conditions: in vivo
[8] = test system: Homo sapiens; test: Tlast in human at 15 mg, po administered as single dose by liquid scintillation counting method; assay type: ADME, organism-based; conditions: in vivo
[9] = test system: Homo sapiens; test: Apparent volume of distribution during terminal phase in human at 15 mg, po administered as single dose by liquid scintillation counting method; assay type: ADME, organism-based; conditions: in vivo
[10] = target: T2, Cytochrome P450 2C19 (Homo sapiens, UniProt P33261); test: Intrinsic clearance assessed as human recombinant CYP2C19-mediated drug depletion per pmol protein by LC-MS/MS method; assay type: ADME; conditions: recombinant enzyme
[11] = target: T2, Cytochrome P450 2C19; test: Drug metabolism in human liver microsomes assessed as CYP3A4-mediated drug depletion in presence of CYP2C19 inhibitor modafinil by LC-MS/MS method; assay type: ADME
[12] = test system: Plasma; test: Drug level in human plasma treated with [14C}LY2452473 at 15 mg, po after 1 hr administered as single dose by HPLC analysis; assay type: ADME, organism-based; conditions: in vivo
[13] = test system: Homo sapiens; test: AUC (0 to infinity) in human at 15 mg, po administered as single dose by liquid scintillation counting method; assay type: ADME, organism-based, Plasma; set-up: dose 15 mg, time infinity, route oral; conditions: in vivo
[14] = target: T3, Cytochrome P450 2D6 (Homo sapiens, UniProt P10635); test: Intrinsic clearance assessed as human recombinant CYP2D6-mediated drug depletion per pmol protein by LC-MS/MS method; assay type: ADME; conditions: recombinant enzyme
[15] = target: T4, Cytochrome P450 2J2 (Homo sapiens, UniProt P51589); test: Normalized intrinsic clearance assessed as human recombinant CYP2J2-mediated drug depletion per pmol protein by LC-MS/MS method; assay type: ADME; conditions: recombinant enzyme
T4 sequence (P51589 whole entry): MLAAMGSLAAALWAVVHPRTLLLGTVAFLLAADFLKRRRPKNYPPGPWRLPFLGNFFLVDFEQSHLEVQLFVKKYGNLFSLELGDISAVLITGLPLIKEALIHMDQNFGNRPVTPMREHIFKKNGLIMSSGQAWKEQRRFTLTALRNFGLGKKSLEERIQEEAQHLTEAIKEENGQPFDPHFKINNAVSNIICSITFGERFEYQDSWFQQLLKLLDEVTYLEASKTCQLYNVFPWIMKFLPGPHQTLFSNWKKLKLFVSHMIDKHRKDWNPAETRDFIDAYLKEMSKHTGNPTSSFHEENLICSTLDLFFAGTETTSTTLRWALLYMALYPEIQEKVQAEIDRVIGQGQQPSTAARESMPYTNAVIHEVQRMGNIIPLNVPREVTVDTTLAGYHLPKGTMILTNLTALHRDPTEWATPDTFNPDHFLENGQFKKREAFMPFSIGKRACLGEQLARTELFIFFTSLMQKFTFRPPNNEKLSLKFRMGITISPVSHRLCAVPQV

[16] = target: T3, Cytochrome P450 2D6; test: Fraction metabolized assessed as human recombinant CYP2D6-mediated drug depletion by LC-MS/MS method relative to total normalized intrinsic clearance; assay type: ADME; conditions: recombinant enzyme
[17] = target: T5, Cytochrome P450 2C9 (Homo sapiens, UniProt P11712); test: Intrinsic clearance assessed as human recombinant CYP2C9-mediated drug depletion per pmol protein by LC-MS/MS method; assay type: ADME; conditions: recombinant enzyme
[18] = target: T5, Cytochrome P450 2C9; test: Normalized intrinsic clearance assessed as human recombinant CYP2C9-mediated drug depletion per pmol protein by LC-MS/MS method; assay type: ADME; conditions: recombinant enzyme
[19] = target: T1, Cytochrome P450 3A4; test: Normalized intrinsic clearance assessed as human recombinant CYP3A4-mediated drug depletion per pmol protein by LC-MS/MS method; assay type: ADME; conditions: recombinant enzyme
[20] = target: T6, Cytochrome P450 2C8 (Homo sapiens, UniProt P10632); test: Drug metabolism assessed as human recombinant CYP2C8-mediated drug depletion by LC-MS/MS method; assay type: ADME; conditions: recombinant enzyme
T6 sequence (P10632 whole entry): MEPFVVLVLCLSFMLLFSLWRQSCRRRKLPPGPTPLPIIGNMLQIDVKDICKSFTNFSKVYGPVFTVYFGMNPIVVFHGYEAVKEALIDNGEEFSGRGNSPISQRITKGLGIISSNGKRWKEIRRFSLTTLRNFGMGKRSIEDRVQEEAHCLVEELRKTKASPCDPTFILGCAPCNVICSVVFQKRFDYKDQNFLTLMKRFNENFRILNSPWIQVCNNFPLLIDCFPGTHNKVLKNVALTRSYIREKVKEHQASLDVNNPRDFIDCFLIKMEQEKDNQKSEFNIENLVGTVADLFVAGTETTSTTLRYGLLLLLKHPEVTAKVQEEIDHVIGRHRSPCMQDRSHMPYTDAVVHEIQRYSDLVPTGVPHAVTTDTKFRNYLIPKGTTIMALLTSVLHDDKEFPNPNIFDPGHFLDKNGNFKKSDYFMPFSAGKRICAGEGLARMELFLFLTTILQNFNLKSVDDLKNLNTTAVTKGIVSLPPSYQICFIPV

[21] = target: T5, Cytochrome P450 2C9; test: Fraction metabolized assessed as human recombinant CYP2C9-mediated drug depletion by LC-MS/MS method relative to total normalized intrinsic clearance; assay type: ADME; conditions: recombinant enzyme
[22] = target: T7, Cytochrome P450 2B6 (Homo sapiens, UniProt P20813); test: Drug metabolism assessed as human recombinant CYP2B6-mediated drug depletion by LC-MS/MS method; assay type: ADME; conditions: recombinant enzyme
T7 sequence (P20813 whole entry): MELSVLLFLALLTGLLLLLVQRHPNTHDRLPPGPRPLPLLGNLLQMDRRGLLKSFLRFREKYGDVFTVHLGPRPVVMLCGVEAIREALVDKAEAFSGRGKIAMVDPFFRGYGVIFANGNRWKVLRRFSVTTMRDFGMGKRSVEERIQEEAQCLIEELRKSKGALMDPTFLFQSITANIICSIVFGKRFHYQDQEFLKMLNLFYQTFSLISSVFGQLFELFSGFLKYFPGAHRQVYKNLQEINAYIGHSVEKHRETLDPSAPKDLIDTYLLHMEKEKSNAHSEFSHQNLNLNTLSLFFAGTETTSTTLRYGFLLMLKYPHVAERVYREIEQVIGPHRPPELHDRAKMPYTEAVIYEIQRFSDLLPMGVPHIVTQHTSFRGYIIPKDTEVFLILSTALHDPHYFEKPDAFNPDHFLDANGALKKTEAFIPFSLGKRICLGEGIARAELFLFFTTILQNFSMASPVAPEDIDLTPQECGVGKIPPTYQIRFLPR

[23] = target: T2, Cytochrome P450 2C19; test: Fraction metabolized assessed as human recombinant CYP2C19-mediated drug depletion by LC-MS/MS method relative to total normalized intrinsic clearance; assay type: ADME; conditions: recombinant enzyme

T5 sequence (P11712 whole entry): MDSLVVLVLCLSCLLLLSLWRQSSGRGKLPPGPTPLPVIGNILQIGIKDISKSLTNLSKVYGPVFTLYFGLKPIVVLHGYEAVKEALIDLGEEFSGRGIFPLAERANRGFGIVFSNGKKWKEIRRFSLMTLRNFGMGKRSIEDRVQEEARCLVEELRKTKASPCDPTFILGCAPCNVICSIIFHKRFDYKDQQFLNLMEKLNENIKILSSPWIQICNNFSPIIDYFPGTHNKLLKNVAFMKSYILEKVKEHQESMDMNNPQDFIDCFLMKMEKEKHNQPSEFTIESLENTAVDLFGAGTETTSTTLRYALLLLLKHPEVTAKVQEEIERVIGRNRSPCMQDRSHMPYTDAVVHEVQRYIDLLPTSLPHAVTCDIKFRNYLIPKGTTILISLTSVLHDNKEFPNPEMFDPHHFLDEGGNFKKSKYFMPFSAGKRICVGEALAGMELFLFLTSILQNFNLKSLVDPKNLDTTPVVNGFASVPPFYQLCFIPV
T2 sequence (P33261 whole entry): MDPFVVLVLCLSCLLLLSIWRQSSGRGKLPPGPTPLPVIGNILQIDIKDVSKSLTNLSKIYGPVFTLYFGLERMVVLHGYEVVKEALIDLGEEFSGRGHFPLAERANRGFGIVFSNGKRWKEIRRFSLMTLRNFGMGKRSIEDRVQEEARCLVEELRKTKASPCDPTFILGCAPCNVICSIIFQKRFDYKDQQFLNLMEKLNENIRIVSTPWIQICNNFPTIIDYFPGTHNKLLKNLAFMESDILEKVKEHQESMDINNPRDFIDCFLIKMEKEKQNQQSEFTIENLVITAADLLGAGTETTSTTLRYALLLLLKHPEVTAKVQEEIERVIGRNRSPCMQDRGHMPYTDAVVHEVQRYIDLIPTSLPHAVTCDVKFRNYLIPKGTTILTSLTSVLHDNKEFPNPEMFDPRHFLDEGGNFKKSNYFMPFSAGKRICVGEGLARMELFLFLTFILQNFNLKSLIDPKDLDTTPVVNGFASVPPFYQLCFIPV
T1 sequence (P08684 whole entry): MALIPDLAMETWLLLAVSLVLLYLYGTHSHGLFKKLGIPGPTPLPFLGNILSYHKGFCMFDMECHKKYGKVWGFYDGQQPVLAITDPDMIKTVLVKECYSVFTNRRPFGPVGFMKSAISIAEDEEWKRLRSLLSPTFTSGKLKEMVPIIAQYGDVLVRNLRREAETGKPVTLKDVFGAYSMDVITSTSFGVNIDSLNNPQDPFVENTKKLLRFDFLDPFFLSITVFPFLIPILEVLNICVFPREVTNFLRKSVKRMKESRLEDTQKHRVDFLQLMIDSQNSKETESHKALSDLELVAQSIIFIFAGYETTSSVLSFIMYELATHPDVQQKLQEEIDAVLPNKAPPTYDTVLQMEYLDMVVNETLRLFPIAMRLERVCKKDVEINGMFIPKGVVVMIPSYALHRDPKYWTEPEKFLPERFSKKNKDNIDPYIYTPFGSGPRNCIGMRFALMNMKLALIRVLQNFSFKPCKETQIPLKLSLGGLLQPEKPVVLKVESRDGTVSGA
T3 sequence (P10635 whole entry): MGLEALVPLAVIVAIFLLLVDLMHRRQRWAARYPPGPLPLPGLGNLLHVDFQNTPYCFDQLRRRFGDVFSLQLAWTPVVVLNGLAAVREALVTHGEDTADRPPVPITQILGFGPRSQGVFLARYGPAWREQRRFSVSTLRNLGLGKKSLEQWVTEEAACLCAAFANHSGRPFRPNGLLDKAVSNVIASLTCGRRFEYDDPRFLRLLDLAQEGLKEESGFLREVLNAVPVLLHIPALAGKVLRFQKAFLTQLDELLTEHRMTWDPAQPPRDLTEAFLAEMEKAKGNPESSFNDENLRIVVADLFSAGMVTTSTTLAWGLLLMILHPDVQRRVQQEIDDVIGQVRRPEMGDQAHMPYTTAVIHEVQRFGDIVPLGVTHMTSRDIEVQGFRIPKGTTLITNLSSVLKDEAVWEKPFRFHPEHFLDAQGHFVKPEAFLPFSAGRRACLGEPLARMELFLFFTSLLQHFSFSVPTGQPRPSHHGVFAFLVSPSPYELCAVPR

CC(C)OC(=O)N[C@H]1Cc2c(n(Cc3ccccn3)c3ccc(C#N)cc23)C1 [LY2452473]
Drug metabolism [1]: metabolite_not_detected
dose excreted [2]: 1.84%
CL [3]: 0.75 µL/min
Drug uptake [4]: 42.36%
Drug uptake [5]: 42.2%
dose excreted [6]: 1.84%
Drug uptake [7]: 66.33%
Tlast [8]: 168 h
Vz/F [9]: 444 L
CL [10]: 0.3 µL/min
Drug metabolism [11]: metabolite_not_detected
Drug uptake [12]: 74.5%
AUC [13]: 1330 ng·h/mL
CL [14]: 0.3 µL/min
CL [15]: 18 µL/min
Fm [16]: 2.6%
CL [17]: 0.1 µL/min
CL [18]: 10 µL/min
CL [19]: 80 µL/min
Drug metabolism [20]: metabolite_not_detected
Fm [21]: 8.5%
Drug metabolism [22]: metabolite_not_detected
Fm [23]: 4.9%

Source: ChEMBL document CHEMBL3525964 (Drug Metab Dispos, 2012)
